Assay results: patent US20240381871A1, “5-HALOALKOXY-PYRIMIDINE COMPOUNDS AS HERBICIDES” (SYNGENTA CROP PROTECTION AG, priority 2020, published 2024)

What was measured:
Format in all cases: in vivo
[1] = test system: Ipomoea hederacea (IPOHE); experiment: Pre-emergence herbicidal glasshouse test; conditions: rate 250, evaluated after 13 days, the values are:
Protocol: (§1) Seeds of a variety of test species are sown in standard soil in pots, Amaranthus retoflexus (AMARE), Abutilon theophrasti (ABUTH), Setaria faberi (SETFA), Echinochloa crus-galli (ECHCG) and Ipomoea hederacea (IPOHE). After cultivation for one day (pre-emergence) or after 8 days cultivation (post-emergence) under controlled conditions in a glasshouse (at 24/16° C., day/night; 14 hours light; 65% humidity), the plants are sprayed with an aqueous spray solution derived from the formulation of the technical active ingredient in acetone/water (50:50) solution containing 0.5% Tween 20 (polyoxyethelyene sorbitan monolaurate, CAS RN 9005-64-5). Compounds are applied at 1000 g/ha unless otherwise stated. The test plants are then grown in a glasshouse under controlled conditions in a glasshouse (at 24/16° C., day/night; 14 hours light; 65% humidity) and watered twice daily. After 13 days for pre and post-emergence, the test is evaluated for the percentage damage caused to the plant.

[2] = test system: Abutilon theophrasti (ABUTH); experiment: Pre-emergence herbicidal glasshouse test; conditions: rate 250, evaluated after 13 days, the values are:
Protocol: as §1

[3] = test system: Echinochloa crus-galli (ECHCG); experiment: Pre-emergence herbicidal glasshouse test; conditions: rate 250, evaluated after 13 days, the values are: phytotoxicity score (1-5)
Protocol: as §1

[4] = test system: Amaranthus retoflexus (AMARE); experiment: Pre-emergence herbicidal glasshouse test; conditions: rate 250, evaluated after 13 days, the values are:
Protocol: as §1

Setaria faberi (SETFA) [5] = experiment: Pre-emergence herbicidal glasshouse test; conditions: rate 250, evaluated after 13 days, the values are: phytotoxicity score (1-5)
Protocol: as §1

[6] = test system: Ipomoea hederacea (IPOHE); experiment: Post-emergence herbicidal glasshouse test; conditions: rate 250, evaluated after 13 days, the values are: phytotoxicity score (1-5 scale)
Protocol: as §1

[7] = test system: Abutilon theophrasti (ABUTH); experiment: Post-emergence herbicidal glasshouse test; conditions: rate 250, evaluated after 13 days, the values are:
Protocol: as §1

[8] = test system: Echinochloa crus-galli (ECHCG); experiment: Post-emergence herbicidal glasshouse test; conditions: rate 250, evaluated after 13 days, the values are: phytotoxicity score (1-5 scale)
Protocol: as §1

[9] = test system: Amaranthus retoflexus (AMARE); experiment: Post-emergence herbicidal glasshouse test; conditions: rate 250, evaluated after 13 days, the values are: phytotoxicity score (1-5 scale)
Protocol: as §1

Setaria faberi (SETFA) [10] = experiment: Post-emergence herbicidal glasshouse test; conditions: rate 250, evaluated after 13 days, the values are:
Protocol: as §1

Zea mays (ZEAMX) = experiment: Comparative post-emergence test, crop damage; conditions: 336 h, after 14 days, read-out: ZEAMX damage (100=total damage to plant; 0=no damage)
Protocol: (§2) Seeds of test species were sown in standard soil in pots. After cultivation for 10 days (post-emergence) under controlled conditions in a glasshouse (at 24/16° C., day/night; 14 hours light; 65% humidity), the plants were sprayed with an aqueous spray solution derived from the formulation of the technical active ingredient in 0.6 ml acetone and 45 ml formulation solution containing 10.6% Emulsogen EL (Registry number 61791-12-6), 42.2% N-methyl pyrrolidone, 42.2% dipropylene glycol monomethyl ether (CAS RN 34590-94-8) and 0.2% X-77 (CAS RN 11097-66-8). The test plants were then grown in a glasshouse under controlled conditions in a glasshouse (at 24/16° C., day/night; 14 hours light; 65% humidity) and watered twice daily. After 14 days, the test was evaluated (100=total damage to plant; 0=no damage to plant). • Weeds: Ipomea hederacea (IPOHE) • Crops: Zea mays (ZEAMX)

Ipomea hederacea (IPOHE) = experiment: Comparative post-emergence test, weed control; conditions: Ipomoea hederacea, 336 h, after 14 days, read-out: IPOHE damage (100=total damage to plant; 0=no damage)
Protocol: as §2

Row | SMILES | Pre-emergence activity IPOHE (% phytotoxicity) [1] | Pre-emergence activity ABUTH (% phytotoxicity) [2] | Pre-emergence activity ECHCG (% phytotoxicity) [3] | Pre-emergence activity AMARE (% phytotoxicity) [4] | Pre-emergence activity SETFA (% phytotoxicity) (Setaria faberi (SETFA) [5]) | Post-emergence activity IPOHE (% phytotoxicity) [6] | Post-emergence activity ABUTH (% phytotoxicity) [7] | Post-emergence activity ECHCG (% phytotoxicity) [8] | Post-emergence activity AMARE (% phytotoxicity) [9] | Post-emergence activity SETFA (% phytotoxicity) (Setaria faberi (SETFA) [10]) | also measured
1 | FC(F)Oc1cnc(Oc2cccc(Cl)c2CCCC(F)(F)F)nc1 [Compound 1.023, 2-[3-chloro-2-(4,4,4-trifluorobutyl)phenoxy]-5-(difluoromethoxy)pyrimidine] | 1 | 1 | 1 | 1 | 1 | 1 | 1 | 1 | 1 | 1 | –
2 | FC(F)Oc1cnc(Oc2cccc(Br)c2CCCC(F)(F)F)nc1 [Compound 1.024] | 1 | 1 | 1 | 2 | 1 | 1 | 1 | 1 | 2 | 1 | –
3 | N#Cc1cccc(Oc2ncc(OC(F)F)cn2)c1CCCC(F)(F)F [Compound 1.025] | 1 | 1 | 1 | 1 | 1 | 1 | 1 | 1 | 2 | 1 | –
4 | O=C(CCC(F)(F)F)c1c(Cl)cccc1Oc1ncc(OC(F)F)cn1 [Compound 1.027, 1-[2-chloro-6-[5-(difluoromethoxy)pyrimidin-2-yl]oxy-phenyl]-4,4,4-trifluoro-butan-1-one] | 1 | 3 | 2 | 4 | 4 | 3 | 3 | 1 | 4 | 1 | –
5 | O=C(CCC(F)(F)F)c1c(Br)cccc1Oc1ncc(OC(F)F)cn1 [Compound 1.028] | 1 | 2 | 1 | 5 | 5 | 2 | 2 | 1 | 5 | 1 | –
6 | COc1cnc(Oc2ccccc2-c2cc(C(F)F)no2)nc1 [Compound 213] | – | – | – | – | – | – | – | – | – | – | plant injury at 2 g/ha (Zea mays (ZEAMX); 2 g/ha): 0%; plant injury at 8 g/ha (Zea mays (ZEAMX); 8 g/ha): 0%; plant injury at 60 g/ha (Zea mays (ZEAMX); 60 g/ha): 0%; plant injury at 125 g/ha (Zea mays (ZEAMX); 125 g/ha): 0%; plant injury at 250 g/ha (Zea mays (ZEAMX); 250 g/ha): 0%; plant injury at 500 g/ha (Zea mays (ZEAMX); 500 g/ha): 20%; pest or weed control at 2 g/ha (Ipomea hederacea (IPOHE); 2 g/ha): 0%; pest or weed control at 8 g/ha (Ipomea hederacea (IPOHE); 8 g/ha): 10%; pest or weed control at 60 g/ha (Ipomea hederacea (IPOHE); 60 g/ha): 20%; pest or weed control at 125 g/ha (Ipomea hederacea (IPOHE); 125 g/ha): 30%; pest or weed control at 250 g/ha (Ipomea hederacea (IPOHE); 250 g/ha): 40%; pest or weed control at 500 g/ha (Ipomea hederacea (IPOHE); 500 g/ha): 50%
